Laboratory results taken from patent US9303061B2, “Spiro compounds as Hepatitis C virus inhibitors” (Sunshine Luke Pharma Co., Ltd., priority 2011, dated 2016).

How the values were obtained:
HCV GT1a replicon cells = assay: HCV replicon assay, GT1a replicon cells (luciferase reporter / NEO gene qPCR); assay type: cell-based; conditions: EC50 range against HCV 1a genotype, 72 hours incubation
Procedure: (§1) An HCV Replicon assay was utilized in the present disclosure, and was prepared, developed and validated as described in Science, 1999, 285 (5424), 110-3 and J. Virol., 2003, 77 (5), 3007-19.
(§2) HCV GT1a, GT1b and GT2a replicon cells were used to test the currently described compound series as well as wild-type cells HCV 1b and resistant cells Y93H, L31F, P32L and 1302V. GT1a, GT1b and GT2a are HCV Replicon System which is transfected HCV 1a, 1b, 2a genotype respectively. The system containing G418 resistance gene NEO and Luciferase Reporter Gene can be used to determine the level of HCV replication, and evaluate the effects of the compounds inhibiting HCV replication, by using a real-time quantitative polymerase chain reaction (qPCR) method to detect NEO, and chemiluminescence method to test Luciferase Reporter Gene.
(§3) 1. Testing EC50 of the Compounds by Luciferase Assay
(§4) The GT1a cells and GT1b cells were seeded into 96-well plates (8,000 cells in 125 μl/well) respectively; each compound was diluted to desired concentration using 5-fold serial dilutions protocol, 10 dose in duplicate, and added to wells with POD™ 810 Plate Assembler. The final concentration of DMSO was 0.5%; the plates were incubated in a CO2 incubator for 72 hours; after that, 40 μl of Luciferase assay substrate (Promega Bright-Glo) was added to each well, and detected by a chemiluminescence detection system (Topcount Microplate Scintillation and Luminescence Counter) 5 minutes later; data analysis.
(§5) 2. Testing EC50 of the Compounds by Detecting Antibiotic G418 Resistance Gene NEO Gene
(§6) The GT1a cells and GT1b cells were seeded into 96-well plates (8,000 cells in 125 μl/well) respectively; each compound was diluted to desired concentration using 5-fold serial dilutions protocol, 10 dose in duplicate, and added to wells with POD™ 810 Plate Assembler, the final concentration of DMSO was 0.5%; the cells were incubated in a CO2 incubator for 72 hours; quantitative PCR. • Sample preparation: the supernatant was removed, 100 μl of FCW buffer solution was added to each well, washed carefully and discarded the solution; 50 μl of lysate FCP was added to each well, the cells was lysed as PCR template and PCR template was diluted with DEPC water as sample template. • Quantitative PCR: preparation of reaction mixture according to PCR system; the reaction mixture was dispensed into a 384-well PCR reaction plate (specially for quantitative); and a standard template which was diluted in proportion was distributed into the plate; and the sample template was distributed into the plate; then the 384-well plate was sealed with closure plate membrane; the […] PCR machine was operated by procedures; data analysis.
(§7) 3. Data processing: EC50 values of compounds were analyzed by GRAPHPAD PRISM® software.

HCV GT1b replicon cells = assay: HCV replicon assay, GT1b replicon cells (luciferase reporter / NEO gene qPCR); assay type: cell-based; conditions: EC50 range against HCV 1b genotype, 72 hours incubation
Procedure: as §1, §2, §3, §4, §5, §6, §7

SMILES	EC50 (HCV GT1a replicon cells; Hepatitis C virus, GT1A) [nM]	EC50 (HCV GT1b replicon cells; Hepatitis C virus, GT1B, 72 h) [nM]	EC50 (HCV GT1b replicon cells) [nM]	EC50 (HCV GT1a replicon cells) [nM]
COC(=O)N[C@H](C(=O)N1CCC[C@H]1c1nc(-c2ccc(-c3ccc(-c4ccc(-c5cnc([C@@H]6CCCN6C(=O)[C@@H](NC(=O)OC)C(C)C)[nH]5)cc4)c4c3C(=O)C3(CCCC3)C4)cc2)c[nH]1)C(C)C [Example 1]	0.001 to 0.1	1 to 10	–	–
COC(=O)N[C@H](C(=O)N1CCC[C@H]1c1ncc(C#Cc2ccc(C#Cc3cnc([C@@H]4CCCN4C(=O)[C@@H](NC(=O)OC)C(C)C)[nH]3)c3c2CC2(CCCC2)C3=O)[nH]1)C(C)C [Example 2]	0.101 to 1	> 10	–	–
COC(=O)N[C@H](C(=O)N1CCC[C@H]1c1nc2ccc(-c3ccc(-c4ccc5nc([C@@H]6CCCN6C(=O)[C@@H](NC(=O)OC)C(C)C)[nH]c5c4)c4c3CC3(CCC(C)CC3)C4=O)cc2[nH]1)C(C)C (stereo partly shown) [Example 3]	0.001 to 0.1	0.001 to 0.1	–	–
COC(=O)N[C@H](C(=O)N1CCC[C@H]1c1nc2ccc(-c3ccc(-c4ccc5nc([C@@H]6CCCN6C(=O)[C@@H](NC(=O)OC)C(C)C)[nH]c5c4)c4c3CC3(CCC(C)CC3)C4)cc2[nH]1)C(C)C [Example 4]	0.001 to 0.1	0.001 to 0.1	–	–
COC(=O)N[C@H](C(=O)N1CCC[C@H]1c1nc2ccc(-c3ccc(-c4ccc5nc([C@@H]6CCCN6C(=O)[C@@H](NC(=O)OC)C(C)C)[nH]c5c4)c4c3CC3(CCCCC3)C4=O)cc2[nH]1)C(C)C [Example 5]	0.001 to 0.1	0.101 to 1	–	–
COC(=O)N[C@H](C(=O)N1CCC[C@H]1c1nc2ccc(-c3ccc(-c4ccc5nc([C@@H]6CCCN6C(=O)[C@@H](NC(=O)OC)C(C)C)[nH]c5c4)c4c3CC3(CCCCC3)C4)cc2[nH]1)C(C)C [Example 6]	0.001 to 0.1	0.001 to 0.1	–	–
COC(=O)N[C@H](C(=O)N1CCC[C@H]1c1ncc(C#Cc2ccc(C#Cc3cnc([C@@H]4CCCN4C(=O)[C@@H](NC(=O)OC)C(C)C)[nH]3)c3c2CC2(CCCC2)C3)[nH]1)C(C)C [Example 8]	0.001 to 0.1	1 to 10	–	–
CCC(C)[C@H](NC(=O)OC)C(=O)N1CCC[C@H]1c1nc2ccc(-c3ccc(-c4ccc(-c5cnc([C@@H]6CCCN6C(=O)[C@@H](NC(=O)OC)C(C)C)[nH]5)cc4)c4c3CC3(CCCC3)C4)cc2[nH]1 (stereo partly shown) [Example 11]	0.001 to 0.1	0.001 to 0.1	–	–
COC(=O)N[C@H](C(=O)N1CCC[C@H]1c1ncc(-c2ccc(-c3ccc(-c4cnc([C@@H]5CCCN5C(=O)[C@@H](NC(=O)OC)C(C)C)[nH]4)c4c3CC3(CCCC3)C4)cc2)[nH]1)C(C)C [Example 14]	0.001 to 0.1	> 10	–	–
COC(=O)N[C@H](C(=O)N1CC(F)(F)C[C@H]1c1ncc(-c2ccc(-c3ccc(-c4cnc([C@@H]5CC(F)(F)CN5C(=O)[C@@H](NC(=O)OC)C(C)C)[nH]4)c4c3CC3(CCCC3)C4)cc2)[nH]1)C(C)C [Example 15]	0.001 to 0.1	> 10	–	–
COC(=O)N[C@H](C(=O)N1CCC[C@H]1c1ncc(-c2ccc(-c3ccc(-c4cnc([C@@H]5CCCN5C(=O)[C@@H](NC(=O)OC)c5ccccc5)[nH]4)c4c3CC3(CCCC3)C4)cc2)[nH]1)c1ccccc1 [Example 16]	0.001 to 0.1	> 10	–	–
COC(=O)N[C@H](C(=O)N1CCC[C@H]1c1ncc(-c2ccc(-c3ccc(-c4cnc([C@@H]5CCCN5C(=O)[C@@H](NC(=O)OC)C(C)C)[nH]4)c4c3CC3(CCCC3)C4)s2)[nH]1)C(C)C [Example 17]	0.101 to 1	> 10	–	–
COC(=O)N[C@H](C(=O)N1C[C@@H](C)C[C@H]1c1ncc(-c2ccc(-c3ccc(-c4cnc([C@@H]5C[C@H](C)CN5C(=O)[C@@H](NC(=O)OC)C(C)C)[nH]4)c4c3CC3(CCCCC3)C4)cc2)[nH]1)C(C)C [Example 18]	0.001 to 0.1	–	> 10	–
COC(=O)N[C@H](C(=O)N1C[C@@H](C)C[C@H]1c1ncc(-c2ccc(-c3ccc(-c4cnc([C@@H]5C[C@H](C)CN5C(=O)[C@@H](NC(=O)OC)C(C)C)[nH]4)c4c3CC3(CCCCC3)C4)cc2)[nH]1)C(C)C [Example 20]	–	–	0.101 to 1	0.001 to 0.1
COC(=O)N[C@H](C(=O)N1CCC[C@H]1c1ncc(-c2ccc(-c3ccc(-c4ccc5nc([C@@H]6CCCN6C(=O)[C@@H](NC(=O)OC)C(C)C)[nH]c5c4)c4c3CC3(CCCC3)C4)nc2)[nH]1)C(C)C [Example 21]	0.001 to 0.1	1 to 10	–	–
COC(=O)N[C@H](C(=O)N1CCC[C@H]1c1nc2ccc(-c3ccc(-c4ccc5nc([C@@H]6CCCN6C(=O)[C@@H](NC(=O)OC)C(C)C)[nH]c5c4)c4c3CC3(CCCC3)C4)cc2[nH]1)C(C)C [Example 22]	0.001 to 0.1	0.001 to 0.1	–	–
COC(=O)N[C@H](C(=O)N1CCC[C@H]1c1ncc(-c2ccc(-c3ccc(-c4ccc5nc([C@@H]6CCCN6C(=O)[C@@H](NC(=O)OC)C(C)C)[nH]c5c4)c4c3CC3(CCCC3)C4)cc2)[nH]1)C(C)C [Example 23]	0.001 to 0.1	0.001 to 0.1	–	–
CCC(=O)N[C@H](C(=O)N1CCC[C@H]1c1ncc(-c2ccc(-c3ccc(C#Cc4cnc([C@@H]5CCCN5C(=O)[C@@H](NC(=O)OC)C(C)C)[nH]4)c4c3CC3(CCCC3)C4)cc2)[nH]1)C(C)C [Example 24]	0.001 to 0.1	0.001 to 0.1	–	–
COC(=O)N[C@H](C(=O)N1C[C@H](F)C[C@H]1c1ncc(-c2ccc(-c3ccc(-c4cnc([C@@H]5C[C@@H](F)CN5C(=O)[C@@H](NC(=O)OC)C(C)C)[nH]4)c4c3CC3(CCCC3)C4)cc2)[nH]1)C(C)C [Example 29]	0.001 to 0.1	0.001 to 0.1	–	–
COC(=O)N[C@H](C(=O)N1CCC[C@H]1c1ncc(-c2ccc(-c3ccc(-c4ccc5nc([C@@H]6CCCN6C(=O)[C@@H](NC(=O)OC)C(C)C)[nH]c5c4)c4c3C(=O)C3(CCCC3)C4)cc2)[nH]1)C(C)C [Example 36]	0.001 to 0.1	0.001 to 0.1	–	–
COC(=O)N[C@H](C(=O)N1CCC[C@H]1c1ncc(-c2ccc(-c3ccc(-c4cnc([C@@H]5CCCN5C(=O)[C@@H](NC(=O)OC)C(C)C)[nH]4)c4c3C(=O)C3(CCCC3)C4)cc2)[nH]1)C(C)C [Example 37]	1 to 10	1 to 10	–	–
COC(=O)N[C@H](C(=O)N1CCC[C@H]1c1ncc(-c2ccc(-c3ccc(-c4ccc(-c5cnc([C@@H]6CCCN6C(=O)[C@@H](NC(=O)OC)C(C)C)[nH]5)cc4)c4c3CC3(CCCC3)C4)cc2)[nH]1)C(C)C [Example 38]	0.101 to 1	> 10	–	–
COC(=O)N[C@H](C(=O)N1CCC[C@H]1C(=O)Nc1ccc(-c2ccc(-c3ccc(NC(=O)[C@@H]4CCCN4C(=O)[C@@H](NC(=O)OC)C(C)C)cc3)c3c2CC2(CCCC2)C3)cc1)C(C)C [Example 39]	0.001 to 0.1	0.101 to 1	–	–
COC(=O)N[C@H](C(=O)N1C[C@@H](C)C[C@H]1c1ncc(-c2ccc(-c3ccc(-c4ccc(-c5cnc([C@@H]6C[C@H](C)CN6C(=O)[C@@H](NC(=O)OC)C(C)C)[nH]5)cc4)c4c3CC3(CCCC3)C4)cc2)[nH]1)C(C)C [Example 40]	0.001 to 0.1	1 to 10	–	–
COC(=O)N[C@H](C(=O)N1CC2(CC2)C[C@H]1c1ncc(-c2ccc(-c3ccc(-c4ccc(-c5cnc([C@@H]6CC7(CC7)CN6C(=O)[C@@H](NC(=O)OC)C(C)C)[nH]5)cc4)c4c3CC3(CCCC3)C4)cc2)[nH]1)C(C)C [Example 41]	1 to 10	> 10	–	–
CCC(C)[C@H](NC(=O)OC)C(=O)N1C2CC2C[C@H]1c1ncc(-c2ccc(-c3ccc(-c4cnc([C@@H]5CC6CC6N5C(=O)[C@@H](NC(=O)OC)C(C)CC)[nH]4)c4c3CC3(CCCC3)C4)cc2)[nH]1 (stereo partly shown) [Example 43]	0.001 to 0.1	> 10	–	–
COC(=O)N[C@H](C(=O)N1CCCC[C@H]1c1ncc(-c2ccc(-c3ccc(-c4cnc([C@@H]5CCCCN5C(=O)[C@@H](NC(=O)OC)C(C)C)[nH]4)c4c3CC3(CCCC3)C4)cc2)[nH]1)C(C)C [Example 45]	0.001 to 0.1	> 10	–	–
COC(=O)N[C@H](C(=O)N1CCC[C@H]1c1ncc(-c2ccc3cc(-c4ccc(-c5cnc([C@@H]6CCCN6C(=O)[C@@H](NC(=O)OC)C(C)C)[nH]5)c5c4CC4(CCCCC4)C5)ccc3c2)[nH]1)C(C)C [Example 49]	0.001 to 0.1	1 to 10	–	–
COC(=O)N[C@H](C(=O)N1CCC[C@H]1c1ncc(-c2ccc(-c3ccc(-c4cnc([C@@H]5CCCN5C(=O)[C@@H](NC(=O)OC)C(C)C)[nH]4)c4c3CC3(CCCCC3)C4)cc2)[nH]1)C(C)C [Example 50]	0.001 to 0.1	1 to 10	–	–
